PubChem BioAssay AID2060488 (Molecular Pharmacology Branch, DTP, NCI, 2025)

System: 966289-007-R4-J1-PDC complex spheroid viability
Experiment: Anticancer human tumor 966289-007-R4-J1-PDC patient-derived pancreatic adenocarcinoma cell line growth inhibition [GQUAD]
Settings: for IC50: curve of first compound; for viability, T/C: stronger effect = lower value
Method in brief: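 Multi-cell-type spheroids of tumor cells with HUVEC and mesenchymal stem cells, treated with drug combinations. Concentrations descend in half-log steps from near clinical Cmax, or from 10 microM where Cmax is unknown; viability read-out.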

[1] = second compound 0.0316 µM, first compound 0.0316 µM
[2] = second compound 0.0316 µM, first compound 0.1 µM
[3] = second compound 0.0316 µM, first compound 0.316 µM
[4] = second compound 0.0316 µM, first compound 1 µM
[5] = second compound 0.0316 µM, first compound 3.16 µM
[6] = second compound 0.0316 µM, first compound 10 µM
[7] = second compound 0.1 µM, first compound 0.0316 µM
[8] = second compound 0.1 µM, first compound 0.1 µM
[9] = second compound 0.1 µM, first compound 0.316 µM
[10] = second compound 0.1 µM, first compound 1 µM
[11] = second compound 0.1 µM, first compound 3.16 µM
[12] = second compound 0.1 µM, first compound 10 µM
[13] = second compound 0.316 µM, first compound 0.0316 µM
[14] = second compound 0.316 µM, first compound 0.1 µM
[15] = second compound 0.316 µM, first compound 0.316 µM
[16] = second compound 0.316 µM, first compound 1 µM
[17] = second compound 0.316 µM, first compound 3.16 µM
[18] = second compound 0.316 µM, first compound 10 µM
[19] = second compound 1 µM, first compound 0.0316 µM
[20] = second compound 1 µM, first compound 0.1 µM
[21] = second compound 1 µM, first compound 0.316 µM
[22] = second compound 1 µM, first compound 1 µM
[23] = second compound 1 µM, first compound 3.16 µM
[24] = second compound 1 µM, first compound 10 µM
[25] = second compound 3.16 µM, first compound 0.0316 µM
[26] = second compound 3.16 µM, first compound 0.1 µM
[27] = second compound 3.16 µM, first compound 0.316 µM
[28] = second compound 3.16 µM, first compound 1 µM
[29] = second compound 3.16 µM, first compound 3.16 µM
[30] = second compound 3.16 µM, first compound 10 µM
[31] = second compound 10 µM, first compound 0.0316 µM
[32] = second compound 10 µM, first compound 0.1 µM
[33] = second compound 10 µM, first compound 0.316 µM
[34] = second compound 10 µM, first compound 1 µM
[35] = second compound 10 µM, first compound 3.16 µM
[36] = second compound 10 µM, first compound 10 µM
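Further: spheroids exposed to the agents for seven days before readout.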
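Wherever viability, T/C is given: percent viability relative to DMSO vehicle control wells taken as 100%.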

SMILES: COc1cc(C2c3cc4c(cc3C(OC3OC5COC(C)OC5C(O)C3O)C3COC(=O)C23)OCO4)cc(OC)c1O (stereo not drawn) + Cc1[nH]c2ccc(F)cc2c1-c1nc2c3cccnc3c3ncccc3c2[nH]1
- IC50 (second compound 0.0316 µM): 321 nM
- IC50 (second compound 0.1 µM): 273 nM
- IC50 (second compound 0.316 µM): 312 nM
- IC50 (second compound 1 µM): 303 nM
- IC50 (second compound 3.16 µM): 252 nM
- IC50 (second compound 10 µM): 220 nM
- viability, T/C [1]: 107%
- viability, T/C [2]: 104%
- viability, T/C [3]: 50.5%
- viability, T/C [4]: 4.72%
- viability, T/C [5]: 2.07%
- viability, T/C [6]: 0.7%
- viability, T/C [7]: 107%
- viability, T/C [8]: 105%
- viability, T/C [9]: 41.7%
- viability, T/C [10]: 7.49%
- viability, T/C [11]: 1.48%
- viability, T/C [12]: 0.65%
- viability, T/C [13]: 102%
- viability, T/C [14]: 112%
- viability, T/C [15]: 49.2%
- viability, T/C [16]: 7.18%
- viability, T/C [17]: 1.57%
- viability, T/C [18]: 0.55%
- viability, T/C [19]: 99.4%
- viability, T/C [20]: 110%
- viability, T/C [21]: 48%
- viability, T/C [22]: 7.65%
- viability, T/C [23]: 1.61%
- viability, T/C [24]: 0.65%
- viability, T/C [25]: 108%
- viability, T/C [26]: 99.6%
- viability, T/C [27]: 37.6%
- viability, T/C [28]: 6.91%
- viability, T/C [29]: 2.31%
- viability, T/C [30]: 0.77%
- viability, T/C [31]: 101%
- viability, T/C [32]: 97.2%
- viability, T/C [33]: 28.1%
- viability, T/C [34]: 3.87%
- viability, T/C [35]: 1.57%
- viability, T/C [36]: 0.58%

SMILES: COc1cccc2c1C(=O)c1c(O)c3c(c(O)c1C2=O)CC(O)(C(=O)CO)CC3OC1CC(N)C(O)C(C)O1 (stereo not drawn) + Cc1[nH]c2ccc(F)cc2c1-c1nc2c3cccnc3c3ncccc3c2[nH]1
- IC50 (second compound 0.0316 µM): 67.3 nM
- IC50 (second compound 0.1 µM): 63.6 nM
- IC50 (second compound 0.316 µM): 61.1 nM
- IC50 (second compound 1 µM): 61.2 nM
- IC50 (second compound 3.16 µM): 56.5 nM
- IC50 (second compound 10 µM): 52 nM
- viability, T/C [1]: 114%
- viability, T/C [2]: 16.4%
- viability, T/C [3]: 1.91%
- viability, T/C [4]: 0.7%
- viability, T/C [5]: 0.21%
- viability, T/C [6]: 0.6%
- viability, T/C [7]: 104%
- viability, T/C [8]: 15.1%
- viability, T/C [9]: 2.16%
- viability, T/C [10]: 0.91%
- viability, T/C [11]: 0.22%
- viability, T/C [12]: 0.26%
- viability, T/C [13]: 100%
- viability, T/C [14]: 12.6%
- viability, T/C [15]: 2.39%
- viability, T/C [16]: 0.78%
- viability, T/C [17]: 0.23%
- viability, T/C [18]: 0.33%
- viability, T/C [19]: 97.1%
- viability, T/C [20]: 14.7%
- viability, T/C [21]: 2.52%
- viability, T/C [22]: 0.71%
- viability, T/C [23]: 0.32%
- viability, T/C [24]: 0.5%
- viability, T/C [25]: 87.9%
- viability, T/C [26]: 12.9%
- viability, T/C [27]: 2.39%
- viability, T/C [28]: 0.86%
- viability, T/C [29]: 0.29%
- viability, T/C [30]: 0.56%
- viability, T/C [31]: 79.9%
- viability, T/C [32]: 10.9%
- viability, T/C [33]: 1.72%
- viability, T/C [34]: 0.61%
- viability, T/C [35]: 0.4%
- viability, T/C [36]: 0.57%

SMILES: Cc1cccc(N(C)C(=O)C2C(O)CCN2c2nc(C)cc(C(F)(F)F)c2C#N)c1 (stereo not drawn) + Cc1[nH]c2ccc(F)cc2c1-c1nc2c3cccnc3c3ncccc3c2[nH]1
- IC50 (second compound 0.0316 µM): > 10000 nM
- IC50 (second compound 0.1 µM): > 10000 nM
- IC50 (second compound 0.316 µM): > 10000 nM
- IC50 (second compound 1 µM): > 10000 nM
- IC50 (second compound 3.16 µM): > 10000 nM
- IC50 (second compound 10 µM): > 10000 nM
- viability, T/C [1]: 109%
- viability, T/C [2]: 90.5%
- viability, T/C [3]: 108%
- viability, T/C [4]: 90.6%
- viability, T/C [5]: 106%
- viability, T/C [6]: 104%
- viability, T/C [7]: 109%
- viability, T/C [8]: 98.6%
- viability, T/C [9]: 97.2%
- viability, T/C [10]: 101%
- viability, T/C [11]: 106%
- viability, T/C [12]: 103%
- viability, T/C [13]: 97.6%
- viability, T/C [14]: 104%
- viability, T/C [15]: 98.1%
- viability, T/C [16]: 104%
- viability, T/C [17]: 99.7%
- viability, T/C [18]: 106%
- viability, T/C [19]: 102%
- viability, T/C [20]: 96.8%
- viability, T/C [21]: 98.7%
- viability, T/C [22]: 106%
- viability, T/C [23]: 97.2%
- viability, T/C [24]: 110%
- viability, T/C [25]: 104%
- viability, T/C [26]: 104%
- viability, T/C [27]: 110%
- viability, T/C [28]: 107%
- viability, T/C [29]: 113%
- viability, T/C [30]: 114%
- viability, T/C [31]: 107%
- viability, T/C [32]: 102%
- viability, T/C [33]: 110%
- viability, T/C [34]: 104%
- viability, T/C [35]: 103%
- viability, T/C [36]: 113%

SMILES: Cn1ncnc1[C@H]1c2n[nH]c(=O)c3cc(F)cc(c23)N[C@@H]1c1ccc(F)cc1 + Cc1[nH]c2ccc(F)cc2c1-c1nc2c3cccnc3c3ncccc3c2[nH]1
- IC50 (second compound 0.0316 µM): 101 nM
- IC50 (second compound 0.1 µM): 89.8 nM
- IC50 (second compound 0.316 µM): 105 nM
- IC50 (second compound 1 µM): 127 nM
- IC50 (second compound 3.16 µM): 76.3 nM
- IC50 (second compound 10 µM): 63.6 nM
- viability, T/C (second compound 0.0316 µM, first compound 0.000999 µM): 108%
- viability, T/C (second compound 0.0316 µM, first compound 0.00316 µM): 95.8%
- viability, T/C (second compound 0.0316 µM, first compound 0.00999 µM): 105%
- viability, T/C [1]: 96.8%
- viability, T/C (second compound 0.0316 µM, first compound 0.0999 µM): 50.3%
- viability, T/C [3]: 21%
- viability, T/C (second compound 0.1 µM, first compound 0.000999 µM): 101%
- viability, T/C (second compound 0.1 µM, first compound 0.00316 µM): 99.4%
- viability, T/C (second compound 0.1 µM, first compound 0.00999 µM): 106%
- viability, T/C [7]: 99.3%
- viability, T/C (second compound 0.1 µM, first compound 0.0999 µM): 44.9%
- viability, T/C [9]: 20%
- viability, T/C (second compound 0.316 µM, first compound 0.000999 µM): 101%
- viability, T/C (second compound 0.316 µM, first compound 0.00316 µM): 107%
- viability, T/C (second compound 0.316 µM, first compound 0.00999 µM): 108%
- viability, T/C [13]: 105%
- viability, T/C (second compound 0.316 µM, first compound 0.0999 µM): 51.5%
- viability, T/C [15]: 18.6%
- viability, T/C (second compound 1 µM, first compound 0.000999 µM): 101%
- viability, T/C (second compound 1 µM, first compound 0.00316 µM): 103%
- viability, T/C (second compound 1 µM, first compound 0.00999 µM): 112%
- viability, T/C [19]: 102%
- viability, T/C (second compound 1 µM, first compound 0.0999 µM): 58.4%
- viability, T/C [21]: 18.6%
- viability, T/C (second compound 3.16 µM, first compound 0.000999 µM): 105%
- viability, T/C (second compound 3.16 µM, first compound 0.00316 µM): 105%
- viability, T/C (second compound 3.16 µM, first compound 0.00999 µM): 110%
- viability, T/C [25]: 92.8%
- viability, T/C (second compound 3.16 µM, first compound 0.0999 µM): 36.9%
- viability, T/C [27]: 12.1%
- viability, T/C (second compound 10 µM, first compound 0.000999 µM): 106%
- viability, T/C (second compound 10 µM, first compound 0.00316 µM): 105%
- viability, T/C (second compound 10 µM, first compound 0.00999 µM): 109%
- viability, T/C [31]: 88.3%
- viability, T/C (second compound 10 µM, first compound 0.0999 µM): 25.3%
- viability, T/C [33]: 11.6%
